Results: article PMC4116524, “A virtual screen identified C96 as a novel inhibitor of phosphatidylinositol 3-kinase that displays potent preclinical activity against multiple myeloma in vitro and in vivo” (Oncotarget, 2014)

Columns and labels:
AKT1 = molecular target: T1, AKT1 (Homo sapiens, UniProt P31749); test: Kinase activity in cell-free assay (HotSpot); assay type: biochemical
T1 construct: purchased Reaction Biology Corp
Protocol: (§1) Kinase activity in the presence of C96 was performed by using the HotSpot technology (Reaction Biology Corp., Malvern, PA, USA). Briefly, kinases (PI3Kα, β, δ, γ, AKT1, 2, 3, and mTOR) and substrates were diluted in reaction buffer. Subsequently, 5 nL of serially diluted C96 (in pure DMSO) was delivered into diluted kinase and substrate mixture by using Echo 550 (LabCyte Inc. Sunnyvale, CA). The reaction was started by adding ^33P-ATP (hot ATP) into the reaction mixture (the final concentration was 10 μM) and stopped after 2 hrs incubation at room temperature. The un-reacted hot ATP was washed away before detection.

AKT2 = molecular target: T2, AKT2 (Homo sapiens, UniProt P31751); test: Kinase activity in cell-free assay (HotSpot); assay type: biochemical
T2 construct: purchased Reaction Biology Corp
Protocol: as §1

AKT3 = molecular target: T3, AKT3 (Homo sapiens, UniProt Q9Y243); test: Kinase activity in cell-free assay (HotSpot); assay type: biochemical
T3 construct: purchased Reaction Biology Corp
Protocol: as §1

PI3Kβ = molecular target: T4, PI3Kβ (Homo sapiens, UniProt P42338); test: Kinase activity in cell-free assay (HotSpot); assay type: biochemical
T4 construct: purchased Reaction Biology Corp
Protocol: as §1

[1] = system: IGF-1R phosphorylation in LP1 and JJN3 cells; test: IGF-1-induced IGF-1R phosphorylation, immunoblotting; assay type: cell-based; settings: 100 μM, 2 hrs, IGF-1 15 min
Protocol: To elucidate this specificity, we first evaluated its effects on IGF-1R because IGF-1R as a receptor tyrosine kinase activates PI3K in the presence of IGF-1. To exclude the potential effects of C96 on IGF-1 signaling, LP1 and JJN3 cells were starved overnight followed by C96 or S14161 treatment for 2 hrs, and IGF-1 stimulation for 15 min. As expected, IGF-1 triggered AKT phosphorylation but it was suppressed by both C96 and the proven PI3K inhibitor S14161 without affecting total AKT expression (Figure 3A). […] Next, we evaluated other kinases including non-receptor kinase c-Src and a PI3K parallel kinase ERK which transduces external cellular signals. Both LP1 and JJN3 cells were treated with C96 at increasing concentrations that inhibited AKT and mTOR activation (Figure 2C).
Figure 3 C96 inhibits AKT but not IGF-1R, ERK or c-Src kinase activation (A) LP1 and JJN3 cells were starved overnight, then treated with 100 (μM of C96 or S14161 for 2 hrs, followed by IGF-1 (100 ng/mL) for 15 min. After incubation, cells were harvested and the expression of p-AKT, p-IGF-1R, total AKT (T-AKT), and IGF-1R proteins were detected by immunoblotting. (B) LP1 and JJN3 were treated with C96 at indicated concentrations for 24 hrs followed by immunoblotting assay for the expression of p-Src, c-Src, p-ERK, and ERK. GAPDH was used as a loading control. […]

[2] = system: phosphorylation of mTOR, p70S6K and 4E-BP1 in LP1, OPM2 and JJN3 cells; test: mTOR signaling pathway, immunoblotting; assay type: cell-based; settings: LP1, OPM2, JJN3, 24 hrs, concentration-dependent
Protocol: Figure 2 C96 inhibits AKT and mTOR signaling (A) LP1 and OPM2 were starved overnight, then treated with C96 at the indicated concentrations, or 100 μM of S14161 for 2 hrs, followed by IGF-1 (100 ng/mL) for 15 min. Cells were collected for the analysis of the expression of p-AKT and total AKT (T-AKT) by immunoblotting. […]
The PI3K/AKT plays a critical role in regulating a myriad of downstream effectors, of which the most prominent ones are mTOR/p70S6K/4E-BP1. […] To examine whether PI3K inhibition led to deregulation of the mTOR signaling pathway, we further measured the changes of mTOR, p70S6K and 4E-BP1 in MM cell lines LP1, OPM2, and JJN3 in the presence of C96.
Cells were treated with or without C96 for 24 hrs before being applied to lysate preparation in a lysis buffer (50 mM Tris-HCI, pH 7.4, 1% NP-40, 0.5% Na-deoxycholate, and 0.1% SDS, 150 mM NaCl, 2 mM EDTA, 2 mM Na3VO4, and 5 mM NaF). […] All immunoblotting signals were further analyzed with Quality One Quality One software (Bio-Rad, Berkeley, CA, USA).

T3 sequence (Q9Y243 whole entry): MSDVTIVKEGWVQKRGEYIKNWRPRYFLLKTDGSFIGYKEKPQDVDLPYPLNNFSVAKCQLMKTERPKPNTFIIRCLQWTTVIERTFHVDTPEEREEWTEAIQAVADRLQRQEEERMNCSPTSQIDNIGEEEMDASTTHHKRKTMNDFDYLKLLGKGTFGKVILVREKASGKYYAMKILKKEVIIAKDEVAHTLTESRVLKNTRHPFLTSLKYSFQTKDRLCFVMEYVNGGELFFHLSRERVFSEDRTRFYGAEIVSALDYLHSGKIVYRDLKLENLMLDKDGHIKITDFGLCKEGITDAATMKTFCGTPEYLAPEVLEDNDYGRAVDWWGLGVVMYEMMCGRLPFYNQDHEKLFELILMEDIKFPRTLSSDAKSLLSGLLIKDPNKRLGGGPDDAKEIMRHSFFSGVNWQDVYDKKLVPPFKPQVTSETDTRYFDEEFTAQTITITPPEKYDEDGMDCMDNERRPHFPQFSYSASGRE
T1 sequence (P31749 whole entry): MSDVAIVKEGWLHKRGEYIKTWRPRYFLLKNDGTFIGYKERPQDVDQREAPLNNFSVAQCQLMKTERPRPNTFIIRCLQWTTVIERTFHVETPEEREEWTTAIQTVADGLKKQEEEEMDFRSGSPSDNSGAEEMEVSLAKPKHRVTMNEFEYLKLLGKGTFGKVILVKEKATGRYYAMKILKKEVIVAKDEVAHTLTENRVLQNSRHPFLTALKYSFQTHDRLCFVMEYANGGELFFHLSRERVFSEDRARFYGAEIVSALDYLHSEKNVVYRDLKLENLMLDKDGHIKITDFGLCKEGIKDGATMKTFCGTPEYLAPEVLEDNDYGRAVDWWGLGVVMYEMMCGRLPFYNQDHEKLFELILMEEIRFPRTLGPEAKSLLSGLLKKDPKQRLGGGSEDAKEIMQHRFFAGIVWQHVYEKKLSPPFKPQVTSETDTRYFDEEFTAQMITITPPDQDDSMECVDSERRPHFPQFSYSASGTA
T2 sequence (P31751 whole entry): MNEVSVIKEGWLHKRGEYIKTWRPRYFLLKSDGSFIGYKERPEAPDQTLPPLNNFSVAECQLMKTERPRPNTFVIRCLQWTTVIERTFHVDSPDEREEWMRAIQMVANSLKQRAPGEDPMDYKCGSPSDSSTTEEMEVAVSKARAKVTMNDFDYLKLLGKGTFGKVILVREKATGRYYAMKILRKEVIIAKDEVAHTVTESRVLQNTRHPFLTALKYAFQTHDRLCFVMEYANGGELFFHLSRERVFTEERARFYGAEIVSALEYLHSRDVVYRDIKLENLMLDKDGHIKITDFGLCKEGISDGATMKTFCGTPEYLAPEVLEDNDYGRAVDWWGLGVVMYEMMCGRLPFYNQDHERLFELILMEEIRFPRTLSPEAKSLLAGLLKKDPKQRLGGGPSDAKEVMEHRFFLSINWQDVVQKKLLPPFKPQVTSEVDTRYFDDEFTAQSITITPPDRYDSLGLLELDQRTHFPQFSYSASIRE
T4 sequence (P42338 whole entry): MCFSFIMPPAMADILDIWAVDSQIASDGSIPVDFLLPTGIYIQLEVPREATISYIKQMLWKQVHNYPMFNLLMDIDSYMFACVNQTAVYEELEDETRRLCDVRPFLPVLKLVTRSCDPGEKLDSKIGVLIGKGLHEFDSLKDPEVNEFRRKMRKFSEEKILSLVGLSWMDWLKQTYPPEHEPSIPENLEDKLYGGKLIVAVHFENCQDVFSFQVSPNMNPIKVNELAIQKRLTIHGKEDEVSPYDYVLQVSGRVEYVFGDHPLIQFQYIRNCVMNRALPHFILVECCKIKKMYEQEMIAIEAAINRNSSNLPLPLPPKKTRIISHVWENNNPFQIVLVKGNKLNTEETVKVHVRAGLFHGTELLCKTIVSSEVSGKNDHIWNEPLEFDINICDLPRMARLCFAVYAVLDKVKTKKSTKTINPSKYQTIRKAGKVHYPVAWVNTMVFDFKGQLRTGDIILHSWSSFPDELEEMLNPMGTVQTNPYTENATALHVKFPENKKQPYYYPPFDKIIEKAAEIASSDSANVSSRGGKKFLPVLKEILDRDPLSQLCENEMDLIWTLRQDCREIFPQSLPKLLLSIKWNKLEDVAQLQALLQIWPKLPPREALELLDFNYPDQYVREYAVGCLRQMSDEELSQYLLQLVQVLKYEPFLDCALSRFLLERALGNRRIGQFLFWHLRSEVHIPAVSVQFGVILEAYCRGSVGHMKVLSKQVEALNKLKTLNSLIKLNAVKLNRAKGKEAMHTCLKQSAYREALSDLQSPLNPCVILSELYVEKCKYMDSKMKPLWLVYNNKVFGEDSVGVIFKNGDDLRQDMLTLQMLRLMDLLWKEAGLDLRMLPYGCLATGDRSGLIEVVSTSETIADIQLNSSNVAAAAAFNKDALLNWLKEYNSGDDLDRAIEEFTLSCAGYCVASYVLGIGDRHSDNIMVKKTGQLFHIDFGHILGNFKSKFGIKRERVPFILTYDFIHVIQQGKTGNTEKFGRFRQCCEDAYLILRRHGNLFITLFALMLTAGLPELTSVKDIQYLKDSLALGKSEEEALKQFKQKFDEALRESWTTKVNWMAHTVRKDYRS
T4 sequence (P27986 whole entry partner): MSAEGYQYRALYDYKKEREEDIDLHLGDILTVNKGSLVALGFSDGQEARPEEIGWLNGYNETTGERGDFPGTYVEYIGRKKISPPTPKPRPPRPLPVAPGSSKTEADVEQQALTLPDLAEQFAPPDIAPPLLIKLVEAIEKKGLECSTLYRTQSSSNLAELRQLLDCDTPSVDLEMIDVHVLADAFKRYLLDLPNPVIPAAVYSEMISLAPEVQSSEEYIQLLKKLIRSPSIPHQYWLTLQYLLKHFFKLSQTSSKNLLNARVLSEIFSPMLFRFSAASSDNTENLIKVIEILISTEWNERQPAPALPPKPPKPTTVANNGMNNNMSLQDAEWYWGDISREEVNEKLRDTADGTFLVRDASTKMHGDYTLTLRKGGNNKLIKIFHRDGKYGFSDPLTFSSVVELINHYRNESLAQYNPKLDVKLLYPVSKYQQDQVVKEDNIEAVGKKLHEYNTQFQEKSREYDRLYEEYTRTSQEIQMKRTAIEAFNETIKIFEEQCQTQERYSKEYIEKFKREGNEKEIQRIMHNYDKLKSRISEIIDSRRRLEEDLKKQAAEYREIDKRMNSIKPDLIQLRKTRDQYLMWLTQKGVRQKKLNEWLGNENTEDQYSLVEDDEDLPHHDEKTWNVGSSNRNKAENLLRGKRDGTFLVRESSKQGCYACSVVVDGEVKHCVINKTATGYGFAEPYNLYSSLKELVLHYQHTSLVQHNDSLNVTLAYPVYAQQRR

`O=C1NC(=O)C(=CC=Cc2cccs2)C(=O)N1` [C96, 5-(3-(2-thienyl)-2-propen-1-ylidene)-2,4,6(1H,3H,5H)-pyrimidinetrione] was tested, and the “enzymatic activity AKT1” value (AKT1; 300 μM) was “higher than 50%”, the AKT1 catalytic activity (AKT1; C96 1.00E-04 M) was 89.13% and the AKT1 catalytic activity (AKT1; C96 1.11E-05 M) was 104.72%. The AKT1 catalytic activity (AKT1; C96 1.23E-06 M) was 101.71%, the AKT1 catalytic activity (AKT1; C96 1.37E-07 M) was 102.27% and the AKT1 catalytic activity (AKT1; C96 1.52E-08 M) was 94.32%. For the same compound, the AKT1 catalytic activity (AKT1; C96 3.00E-04 M) was 57.61%, the AKT1 catalytic activity (AKT1; C96 3.33E-05 M) was 100.86% and the AKT1 catalytic activity (AKT1; C96 3.70E-06 M) was 110.72%. For the same compound, the AKT1 catalytic activity (AKT1; C96 4.12E-07 M) was 99.76%, the AKT1 catalytic activity (AKT1; C96 4.57E-08 M) was 103.80% and the “IC50 AKT1” value (AKT1; cell-free) was “not detectable”. For the same compound, the “enzymatic activity AKT2” value (AKT2; 300 μM) was “higher than 50%”, the AKT2 catalytic activity (AKT2; C96 1.11E-05 M) was 102.16% and the AKT2 catalytic activity (AKT2; C96 1.23E-06 M) was 97.18%. The AKT2 catalytic activity (AKT2; C96 1.37E-07 M) was 97.27%, the AKT2 catalytic activity (AKT2; C96 1.52E-08 M) was 95.67% and the AKT2 catalytic activity (AKT2; C96 3.00E-04 M) was 86.10%. For the same compound, the AKT2 catalytic activity (AKT2; C96 3.33E-05 M) was 100.38%, the AKT2 catalytic activity (AKT2; C96 3.70E-06 M) was 102.25% and the AKT2 catalytic activity (AKT2; C96 4.12E-07 M) was 100.48%. For the same compound, the AKT2 catalytic activity (AKT2; C96 4.57E-08 M) was 100.26%, the “IC50 AKT2” value (AKT2; cell-free) was “not detectable” and the “enzymatic activity AKT3” value (AKT3; 300 μM) was “higher than 50%”. The AKT3 catalytic activity (AKT3; C96 1.00E-04 M) was 98.26%, the AKT3 catalytic activity (AKT3; C96 1.11E-05 M) was 100.98% and the AKT3 catalytic activity (AKT3; C96 1.23E-06 M) was 100.31%. For the same compound, the AKT3 catalytic activity (AKT3; C96 1.37E-07 M) was 100.29%, the AKT3 catalytic activity (AKT3; C96 1.52E-08 M) was 109.49% and the AKT3 catalytic activity (AKT3; C96 3.00E-04 M) was 79.18%. For the same compound, the AKT3 catalytic activity (AKT3; C96 3.33E-05 M) was 108.59%, the AKT3 catalytic activity (AKT3; C96 3.70E-06 M) was 117.76% and the AKT3 catalytic activity (AKT3; C96 4.12E-07 M) was 106.62%. The AKT3 catalytic activity (AKT3; C96 4.57E-08 M) was 102.54%, the “IC50 AKT3” value (AKT3; cell-free) was “not detectable” and the IC50 (PI3Kβ) was 134 µM. The “IGF-1R phosphorylation induced by IGF-1” value [1] was “not affected” and the “phosphorylation levels of mTOR, p70S6K and 4E-BP1” value [2] was “downregulated”.
